In patent publication US20190119200A1, “TERTIARY AMIDES AND METHOD OF USE” (AbbVie Inc., priority 2016, published 2019):

Tested on: LPA-induced MCP-1 in NRK-49F cells
Test: LPA-induced MCP-1 AlphaLISA assay
Type: cell-based
Conditions: Rattus norvegicus, final LPA 10 μM, 7 hours; for Emax: read-out: Maximum Inhibition
In short: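 NRK-49F rat fibroblasts, serum-starved overnight, pretreated with compound for 30 min at 37 °C (1% DMSO final), then stimulated with 10 μM LPA final. MCP-1 in the supernatant was measured by mouse/rat CCL2 AlphaLISA. IC50 values came from four-parameter logistic fits of the ratio data.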

Structure (SMILES)	IC50	Emax
COc1cc(C(=O)N(CCCc2ccccc2)CCSC(C)CC(=O)O)cc(OC)c1C (stereo not drawn) [Example 62, 3-({2-[(3,5-dimethoxy-4-methylbenzoyl)(3-phenylpropyl)amino]ethyl}sulfanyl)butanoic Acid]	184 nM	94%
COc1cc(C(=O)N(CCCc2ccccc2)CCC[C@@H](C)C(=O)O)cc(OC)c1C (single isomer, unassigned) [Example 77]	60 nM	92%
COc1cc(C(=O)N(CCCc2ccccc2)CCSCCC(=O)O)cc(OC)c1C [Example 60, 3-({2-[(3,5-dimethoxy-4-methylbenzoyl)(3-phenylpropyl)amino]ethyl}sulfanyl)propanoic Acid]	1550 nM	84%
COc1cc(C(=O)N(CCCc2ccccc2)CCOCC(=O)O)cc(OC)c1C [Example 6, {2-[(3,5-dimethoxy-4-methylbenzoyl)(3-phenylpropyl)amino]ethoxy}acetic Acid]	723 nM	80%
COc1cc(OC)cc(C(=O)N(CCCCC(=O)O)CCCc2cccc(Cl)c2)c1 [Example 91, 5-{[3-(3-chlorophenyl)propyl](3,5-dimethoxybenzoyl)amino}pentanoic Acid]	2090 nM	84%
COc1cc(C(=O)N(CCCc2ccccc2)CCCC(C)(C)C(=O)O)cc(OC)c1C [Example 57, 5-[(3,5-dimethoxy-4-methylbenzoyl)(3-phenylpropyl)amino]-2,2-dimethylpentanoic Acid]	39 nM	97%
COc1cc(C(=O)N(CCCCC(=O)O)CCCc2ccc(F)cc2)cc(OC)c1C [Example 34, 5-{(3,5-dimethoxy-4-methylbenzoyl)[3-(4-fluorophenyl)propyl]amino}pentanoic Acid]	786 nM	77%
COc1cc(C(=O)N(CCCCC(=O)O)CCCc2ccccc2)cc(OC)c1OC [Example 10, 5-[(3-phenylpropyl)(3,4,5-trimethoxybenzoyl)amino]pentanoic Acid]	4840 nM	70%
COc1cc(C(=O)N(CCCc2ccccc2)CC(=O)NC2(C(=O)O)CC2)cc(OC)c1C [Example 3, 1-{[N-(3,5-dimethoxy-4-methylbenzoyl)-N-(3-phenylpropyl)glycyl]amino}cyclopropane-1-carboxylic Acid]	3120 nM	74%
COc1cc(C(=O)N(CCCc2cccc(F)c2)CCSCC(=O)O)cc(OC)c1C [Example 117, [(2-{(3,5-dimethoxy-4-methylbenzoyl)[3-(3-fluorophenyl)propyl]amino}ethyl)sulfanyl]acetic Acid]	180 nM	91%
COc1cc(C(=O)N(CCCc2ccccc2F)CCOCC(=O)O)cc(OC)c1C [Example 110, (2-{(3,5-dimethoxy-4-methylbenzoyl)[3-(2-fluorophenyl)propyl]amino}ethoxy)acetic Acid]	1260 nM	83%
COc1cc(C(=O)N(CCCCC(=O)NS(C)(=O)=O)CCCc2ccccc2)cc(OC)c1C [Example 111, N-{5-[(methanesulfonyl)amino]-5-oxopentyl}-3,5-dimethoxy-4-methyl-N-(3-phenylpropyl)benzamide]	787 nM	91%
COc1cc(C(=O)N(CCCc2ccc(C)o2)CCSCC(=O)O)cc(OC)c1C [Example 132, [(2-{(3,5-dimethoxy-4-methylbenzoyl)[3-(5-methylfuran-2-yl)propyl]amino}ethyl)sulfanyl]acetic Acid]	783 nM	80%
COc1cc(C(=O)N(CCCc2cccc(Cl)c2)CCSCC(=O)O)cc(OC)c1C [Example 122, [(2-{[3-(3-chlorophenyl)propyl](3,5-dimethoxy-4-methylbenzoyl)amino}ethyl)sulfanyl]acetic Acid]	419 nM	97%
COc1cc(C(=O)N(CCCc2cccc(Cl)c2)CCOCC(=O)O)cc(OC)c1C [Example 109, (2-{[3-(3-chlorophenyl)propyl](3,5-dimethoxy-4-methylbenzoyl)amino}ethoxy)acetic Acid]	1550 nM	91%
COc1cc(C(=O)N(CCCCC(=O)O)CCCc2ccc(Cl)o2)cc(OC)c1C [Example 185, 5-{[3-(5-chlorofuran-2-yl)propyl](3,5-dimethoxy-4-methylbenzoyl)amino}pentanoic Acid]	536 nM	84%
COc1cc(C(=O)N(CCCCC(=O)O)CCCc2ccccc2)cc(OC)c1C1CC1 [Example 35, 5-[(4-cyclopropyl-3,5-dimethoxybenzoyl)(3-phenylpropyl)amino]pentanoic Acid]	107 nM	92%

Structure (SMILES)	IC50	Emax
COc1cc(C(=O)N(CCCCC(=O)O)CCCc2ccccc2)cc(OC)c1C [Example 4, 5-[(3,5-dimethoxy-4-methylbenzoyl)(3-phenylpropyl)amino]pentanoic Acid]	188 nM	91%
COc1ccc(C2(C(=O)N(CCCc3ccccc3)CCSCC(=O)O)CC2)cc1 [Example 115, [(2-{[1-(4-methoxyphenyl)cyclopropane-1-carbonyl](3-phenylpropyl)amino}ethyl)sulfanyl]acetic Acid]	3540 nM	67%
COc1cc(C(=O)N(CCCc2ccccc2Cl)CCOCC(=O)O)cc(OC)c1C [Example 131, (2-{[3-(2-chlorophenyl)propyl](3,5-dimethoxy-4-methylbenzoyl)amino}ethoxy)acetic Acid]	1730 nM	71%
COc1cc(C(=O)N(CCCc2ccccc2)CCOCC(=O)NS(C)(=O)=O)cc(OC)c1C [Example 157, N-(2-{2-[(methanesulfonyl)amino]-2-oxoethoxy}ethyl)-3,5-dimethoxy-4-methyl-N-(3-phenylpropyl)benzamide]	460 nM	77%
COc1cc(C(=O)N(CCCCC(=O)O)CCCc2ccccc2F)cc(OC)c1C [Example 32, 5-{(3,5-dimethoxy-4-methylbenzoyl)[3-(2-fluorophenyl)propyl]amino}pentanoic Acid]	473 nM	89%
COc1cc(C(=O)N(CCCCC(=O)O)CCCc2ccco2)cc(OC)c1C [Example 173, 5-{(3,5-dimethoxy-4-methylbenzoyl)[3-(furan-2-yl)propyl]amino}pentanoic Acid]	4540 nM	64%
COc1cc(C(=O)N(CCCc2ccccc2)CCCC(C)(O)C(=O)O)cc(OC)c1C (stereo not drawn) [Example 155, 5-[(3,5-dimethoxy-4-methylbenzoyl)(3-phenylpropyl)amino]-2-hydroxy-2-methylpentanoic Acid]	763 nM	81%
COc1cc(C(=O)N(CCCCC(=O)O)CCCc2cccc(Cl)c2)cc(OC)c1C [Example 38, 5-{[3-(3-chlorophenyl)propyl](3,5-dimethoxy-4-methylbenzoyl)amino}pentanoic Acid]	108 nM	91%
COc1cc(C(=O)N(CCCc2ccccc2)CCOCP(=O)(O)O)cc(OC)c1C [Example 50, ({2-[(3,5-dimethoxy-4-methylbenzoyl)(3-phenylpropyl)amino]ethoxy}methyl)phosphonic Acid]	2 nM	98%
COc1cc(C(=O)N(CCCc2ccccc2F)CCSCC(=O)O)cc(OC)c1C [Example 116, [(2-{(3,5-dimethoxy-4-methylbenzoyl)[3-(2-fluorophenyl)propyl]amino}ethyl)sulfanyl]acetic Acid]	173 nM	85%
COc1ccc(C2(C(=O)N(CCCCC(=O)O)CCCc3ccccc3)CC2)cc1 [Example 8, 5-{[1-(4-methoxyphenyl)cyclopropane-1-carbonyl](3-phenylpropyl)amino}pentanoic Acid]	1830 nM	84%
COc1cc(C(=O)N(CCCCC(=O)O)CCCc2ccccc2)cc(OC)c1C(F)(F)F [Example 37, 5-{[3,5-dimethoxy-4-(trifluoromethyl)benzoyl](3-phenylpropyl)amino}pentanoic Acid]	479 nM	81%
COc1cc(C(=O)N(CCCc2cccc(F)c2)CCOCC(=O)O)cc(OC)c1C [Example 129, (2-{(3,5-dimethoxy-4-methylbenzoyl)[3-(3-fluorophenyl)propyl]amino}ethoxy)acetic Acid]	968 nM	90%
COc1cc(C(=O)N(CCCCC(=O)O)CCCc2cccc(F)c2)cc(OC)c1C [Example 33, 5-{(3,5-dimethoxy-4-methylbenzoyl)[3-(3-fluorophenyl)propyl]amino}pentanoic Acid]	215 nM	84%
COc1cc(C(=O)N(CCCCC(=O)O)CCCc2ccccc2)cc(OC)c1Br [Example 20, 5-[(4-bromo-3,5-dimethoxybenzoyl)(3-phenylpropyl)amino]pentanoic Acid]	169 nM	89%
COc1cc(C(=O)N(CCCc2ccccc2)CCSCC(=O)O)cc(OC)c1C [Example 44, ({2-[(3,5-dimethoxy-4-methylbenzoyl)(3-phenylpropyl)amino]ethyl}sulfanyl)acetic Acid]	410 nM	91%
